What was measured:
Format in all cases: cell-based
[1] = system: mCherry-CDK12 recruitment at damaged DNA sites in U2OS cells; experiment: Laser micro-irradiation, time-lapse microscopy of mCherry-CDK12 recruitment to damaged DNA sites; settings: for recruitment of mCherry-CDK12 at laser-damaged areas: 3 hours before laser micro-irradiation; for localisation of CDK12 at laser-damaged sites: 2 hours before laser microirradiation; for localisation of CDK12 at laser-damaged DNA sites: 1 hour before laser microirradiation
Procedure: FIGS. 6A and 6B show how the recruitment of CDK12 to DDR sites is transcription-dependent. U2OS cells, transfected with mCherry-CDK12 plasmid, were first treated with DRB (100 uM), Triptolide (1 uM) or DMSO (mock) for 3 hours and then micro-irradiated by laser. Selected regions within the nucleus were micro-irradiated with 10 iterations of a laser at 405 nm with 100% power. The cells were subjected to quantitative analysis using time-lapse microscopy.
U2OS cells were transfected with the mCherry-CDK12 encoding plasmid and treated with THZ531 (100 nM) or DMSO for 24 hours. The cells were previously treated with BrdU for 24 hours to sensitise the DNA to breaks by laser. To generate localised DNA damage, selected regions within the nucleus were micro-irradiated with 10 iterations of a laser at 405 nm with 100% power. The cells were then subjected to time-lapse microscopic analysis. For each condition, at least 30 cells were considered. FIG. 9A reports representative images used for the analysis shown in the graph of FIG. 9B.
U2OS cells were transfected with mCherry-CDK12 plasmid and pre-treated with KU-55933 (ATMi; 10 μM), VE-821 (ATRi; 10 µM) or DMSO (mock) for 2 hours prior to laser microirradiation. To generate localised DNA damage, selected regions within the nucleus were micro-irradiated with 10 iterations of a laser at 405 nm with 100% power. The cells were subjected to quantitative analysis by time-lapse microscopy. FIG. 10A: representative images used for the analysis shown in the graph in FIG. 10B.
FIGS. 11A and 11B show how CDK12 recruitment to DDR sites depends on PARP1 activity. U2OS cells were transfected with mCherry-CDK12 plasmid and pre-treated with Olaparib (1 µM), Veliparib (10 μM) or DMSO (mock) for 1 hour before laser microirradiation. To generate localised DNA damage, selected regions within the nucleus were micro-irradiated with 10 iterations of a laser at 405 nm with 100% power. The cells were then subjected to quantitative analysis by time-lapse microscopy.
U2OS cells were transfected with a vector encoding mCherry-CDK12. Cells were micro-irradiated with a laser beam to induce DNA breaks confined to appropriately selected nuclear areas.
In order to inhibit RNA-pol2, the cells were pre-treated with either (i) triptolide (a TFIIH inhibitor that blocks the start of transcriptional) or (ii) DRB (5,6-dichlorobenzimidazole riboside, a DSIF inhibitor that prevents transcriptional elongation).
U2OS cells were transfected with a vector encoding for mCherry-CDK12. Cells were micro-irradiated with a laser beam to induce DNA breaks confined to selected nuclear areas. In order to inhibit CDK12, the cells were pre-treated with THZ531, a covalent inhibitor of CDK12.
U2OS cells were transfected with a vector encoding for mCherry-CDK12. The cells were micro-irradiated with a laser beam to induce DNA breaks in selected nuclear areas. To inhibit the DDR response, the cells were pre-treated with an ATM inhibitor (KU-55933) or an ATR inhibitor (VE-821).
U2OS cells, transfected with a vector encoding for mCherry-CDK12, were micro-irradiated with a laser beam to induce DNA breaks confined to selected nuclear areas. To inhibit PARP1, the cells were pre-treated with Olaparib and Veliparib.

[2] = system: mCherry-CDK12 recruitment to programmed DSBs in U2OS-TRE-I-Sce1 cells; experiment: CDK12 recruitment to programmed Sce-1 DSB, co-localisation with γH2A.X; settings: U2OS-TRE-I-SceI cells, doxycycline, 3 hours
Procedure: FIGS. 7A and 7B show how CDK12 recruitment at a DNA-damaged locus is transcriptionally dependent. U2OS-TRE-I-SceI cells were transfected with plasmid vectors encoding mCherry-CDK12, p-rtTA, YFP-MS2 or I-Sce1. The cells were treated with doxycycline, which is required for the induction of the rtTA transcription factor that activates the transcription of the MS2 reporter gene. RNA-pol2 activity was inhibited by DRB (100 uM) or TRIPTOLIDE (TPL, 1 uM) for 3 hours. The cells were fixed with 4% PFA for 15 minutes and immunostained for γH2A. X. The table in FIG. 7B reports the percentage of cells showing co-localisation between CDK12 and γH2A. X (mean of two experiments).
U2OS-TRE-I-Sce-1 cells were transfected with plasmids encoding (i) YFP-MS2 (a chimeric gene produced by the MS2 CDNA fused with the YFP cDNA), (ii) mCherry-CDK12 (a chimeric fusion of mCherry and CDK12), (iii) rtTA (a doxycycline-activated transcription factor) and (iv) the restriction enzyme Sce-1. Transcription was activated by the addition of doxycycline and monitored by detecting subcellular positive nuclear foci for YFP signal. Sce-1-induced DSBs were visualised by immunofluorescence staining specific for the phosphorylated form of histone H2Ax (γH2A. X), a marker for DNA break detection and DNA damage response (DDR) signalling pathway activation. […]

[3] = system: mCherry-CDK12 recruitment at endogenous DDR sites in RPE-iCUT cells; experiment: CDK12 recruitment to CRISPR-Cas9 induced DSBs at endogenous loci; settings: DSBs 1 kb and 2 kb upstream of TSS of POLRIB, IFRD2, MCM2, DRB 100 uM, 3 hours before harvesting
Procedure: RPE iCUT cells, stably expressing inducible CRISPER-Cas9, were transfected with mCherry-CDK12. Cas9 was activated by doxycycline and SHIELD-1 for 16 hours. […] 3 hours before harvesting, the cells were treated with DRB (100 uM). The bar graph reports the percentage of cells showing co-localisation of CDK12 and γH2A. X in the indicated genomic regions (mean of two independent experiments, 40 cells were considered for each region).
For the site-specific induction of a DSB at selected endogenous genomic loci, we used RPE-iCUT cells: immortalised retinal epithelial cells engineered for CRISPR-CAS9 expression and conditional activation. These cells were transfected with mCherry-CDK12 and a set of sgRNAs (Alt-R-gRNA) designed to induce DBS in three expressed genes (MCM2, IFRD2 and POLRIB), in two regions upstream of their site of transcriptional onset (TSS), or designed to induce DSB in two genomic regions distal to transcribed loci. The induction of DSBs by CRISPR-Cas9 was assessed by immunofluorescence of γH2A. X, while the recruitment of CDK12 to DNA-damaged sites was assessed by microscopy analysis of mCherry signals. […] As a control, DSBs induced in regions distal to transcribed loci show low levels of CDK12 recruitment (close to the background signal), which are not altered by RNA-pol2 inhibitors (FIG. 8).

[4] = system: MS2 reporter transcription in U2OS-TRE-I-Sce1 cells; experiment: MS2 reporter gene transcription at damaged locus (YFP-MS2 / pCherry-tTA-ER co-localisation); settings: +SceI, OHT, THZ531 for 24 h
Description: The fixed cells were processed to detect the γH2A. X signal by immunofluorescence. […] U2OS-TRE-I-Sce1 cells were transfected with plasmids encoding (i) YFP-MS2 (a chimeric gene produced from MS2 cDNA fused with YFP cDNA), (ii) mCherry-tTA-ER and (iii) the restriction enzyme Sce-1. Transcription was activated by addition of OHT and monitored by detecting positive nuclear foci for YFP signal. Sce1-induced DSBs were visualised by immunofluorescence staining of the phosphorylated form of the histone H2Ax (γH2A. X), a marker for DNA break detection and DNA damage response (DDR) signalling pathway activation.

For `OC[C@H]1O[C@@H](n2cnc3cc(Cl)c(Cl)cc32)[C@H](O)[C@@H]1O` [DRB, 5,6-dichlorobenzimidazole riboside], the “recruitment of mCherry-CDK12 at laser-damaged areas” value ([1]; DRB 100 uM) was “prevents the recruitment of mCherry-CDK12 at damaged areas”, the “recruitment of mCherry-CDK12 at Sce-1 damaged locus” value ([2]; DRB 100 uM) was “prevents the recruitment of mCherry-CDK12 at damaged areas” and the “CDK12 recruitment to DDR foci proximal to promoters” value [3] was “reduced its recruitment to damaged foci”.

For `O=c1cc(-c2cccc3c2Sc2ccccc2S3)oc(N2CCOCC2)c1` [KU-55933], the “localisation of CDK12 at laser-damaged sites” value ([1]; KU-55933 (ATMi) 10 μM) was “Neither of the two inhibitor affected the localisation of CDK12 at the damaged sites”.

With `O=C(c1cc(Cc2n[nH]c(=O)c3ccccc23)ccc1F)N1CCN(C(=O)C2CC2)CC1` [Olaparib] the “localisation of CDK12 at laser-damaged DNA sites” value ([1]; Olaparib 1 µM) was “inhibited the localisation of CDK12 at damaged DNA sites”.

With `CN(C)C/C=C/C(=O)Nc1ccc(C(=O)N2CCC[C@@H](Nc3ncc(Cl)c(-c4c[nH]c5ccccc45)n3)C2)cc1` [THZ531] the “recruitment of CDK12 at DDR foci (laser)” value ([1]; THZ531 100 nM, 24 hours, BrdU pre-sensitised) was “did not affect the recruitment of CDK12 at DDR foci” and the “MS2 reporter expression at damaged locus” value [4] was “reactivated MS2 reporter expression”.

`CS(=O)(=O)c1ccc(-c2cnc(N)c(C(=O)Nc3ccccc3)n2)cc1` [VE-821] was tested, and the “localisation of CDK12 at laser-damaged sites” value ([1]; VE-821 (ATRi) 10 µM) was “Neither of the two inhibitor affected the localisation of CDK12 at the damaged sites”.

For `C[C@]1(c2nc3c(C(N)=O)cccc3[nH]2)CCCN1` [Veliparib], the “localisation of CDK12 at laser-damaged DNA sites” value ([1]; Veliparib 10 μM) was “inhibited the localisation of CDK12 at damaged DNA sites”.

In the case of `CC(C)[C@]12O[C@H]1[C@@H]1O[C@]13[C@]1(O[C@H]1C[C@H]1C4=C(CC[C@@]13C)C(=O)OC4)[C@@H]2O` [triptolide], the “recruitment of mCherry-CDK12 at laser-damaged areas” value ([1]; Triptolide 1 uM) is reported as “prevents the recruitment of mCherry-CDK12 at damaged areas” and the “recruitment of mCherry-CDK12 at Sce-1 damaged locus” value ([2]; TRIPTOLIDE 1 uM) is reported as “prevents the recruitment of mCherry-CDK12 at damaged areas”.

— patent US20240279711A1, “MARKER FOR DNA DAMAGE IN PROXIMITY OF TRANSCRIBED GENOMIC LOCI AND METHODS FOR IDENTIFYING AND/OR QUANTIFYING THESE DNA DAMAGES” (FONDAZIONE ISTITUTO ITALIANO DI TECNOLOGIA, priority 2021, published 2024)
